Reference: article PMC12172689 (ACS infectious diseases, 2025)
Changes are numbered by the printed parent chain. pEC50, pIC50: −log10 of the molar value.

Experiments:
T. gondii TgCDPK1 G128M = experiment: T. gondii proliferation inhibition, remaining host cell nuclei (DAPI), TgCDPK1 G128M strain; assay type: cell-based, Toxoplasma gondii
T. gondii parent strain = experiment: T. gondii proliferation inhibition, remaining host cell nuclei (DAPI), parent strain; assay type: cell-based, Toxoplasma gondii; details: read-out: parent EC50 (95% CI), 5 days
T. gondii TgMAPKL1 S191Y = details: cited from earlier work
T. gondii TgMAPKL1 L162Q = experiment: T. gondii proliferation inhibition, remaining host cell nuclei (DAPI), TgMAPKL1 L162Q strain; assay type: cell-based, Toxoplasma gondii; details: for pEC50: read-out: TgMAPKL1 L162Q EC50 (95% CI), remaining host cell nuclei, 5 days
[1] = tested on: T. gondii TgCDPK1 G128M TgMAPKL1 L162Q; experiment: T. gondii proliferation inhibition, remaining host cell nuclei (DAPI), double mutant G128M/L162Q; assay type: cell-based, Toxoplasma gondii; details: for pEC50: read-out: TgCDPK1 G128M TgMAPKL1 L162Q EC50 (95% CI), double mutant, remaining host cell nuclei, 5 days
[2] = tested on: T. gondii with a L162Q substitution in TgMAPKL1; experiment: T. gondii proliferation inhibition assay, β-galactosidase readout, TgMAPKL1 L162Q strain; assay type: cell-based, Toxoplasma gondii; details: for pEC50: read-out: TgMAPKL1 L162Q EC50 (95% CI), TgMAPKL1 L162Q strain, β-galactosidase activity, 72 h; for Fold Increase EC50: TgMAPKL1 L162Q vs parent strain, β-galactosidase assay
[3] = tested on: T. gondii TgMAPKL1 parental strain (RH, β-galactosidase transgene); experiment: T. gondii proliferation inhibition assay, β-galactosidase readout, parent strain; assay type: cell-based, Toxoplasma gondii; details: read-out: TgMAPKL1 Parental EC50 (95% CI), β-galactosidase activity, 72 h
T. gondii TgCDPK1 G128T = experiment: T. gondii proliferation inhibition, remaining host cell nuclei (DAPI), TgCDPK1 G128T strain; assay type: cell-based, Toxoplasma gondii; details: read-out: TgCDPK1 G128T EC50 (95% CI), 5 days
TgCDPK1 128G = target: T1, TgCDPK1 128G (Toxoplasma gondii, UniProt Q9BJF5); experiment: TgCDPK1 enzyme inhibition assay (Kinase Glo), wild type glycine gatekeeper; assay type: biochemical; details: read-out: TgCDPK1 128G IC50, 10 μM ATP
T1 sequence (Q9BJF5 1-507): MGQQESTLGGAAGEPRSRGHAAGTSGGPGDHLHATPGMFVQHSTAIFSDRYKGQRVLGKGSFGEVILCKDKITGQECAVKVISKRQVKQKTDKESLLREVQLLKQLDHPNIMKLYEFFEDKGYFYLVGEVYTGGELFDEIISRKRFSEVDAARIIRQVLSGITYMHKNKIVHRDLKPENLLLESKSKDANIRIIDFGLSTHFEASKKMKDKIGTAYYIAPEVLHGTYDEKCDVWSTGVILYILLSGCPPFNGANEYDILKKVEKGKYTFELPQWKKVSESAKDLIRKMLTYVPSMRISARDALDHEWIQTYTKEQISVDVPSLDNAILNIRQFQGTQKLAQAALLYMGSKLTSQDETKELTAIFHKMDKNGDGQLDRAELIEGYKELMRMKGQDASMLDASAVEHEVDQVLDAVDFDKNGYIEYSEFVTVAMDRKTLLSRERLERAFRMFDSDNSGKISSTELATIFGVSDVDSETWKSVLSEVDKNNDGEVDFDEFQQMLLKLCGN

TgCDPK1 128M = target: T2, TgCDPK1 128M (Toxoplasma gondii, UniProt Q9BJF5, G128M); experiment: TgCDPK1 enzyme inhibition assay (Kinase Glo), methionine gatekeeper mutant; assay type: biochemical; details: for Fold Increase IC50: TgCDPK1 128M vs 128G; for pIC50: read-out: TgCDPK1 128M IC50, introduced methionine gatekeeper, 10 μM ATP
T2 sequence (Q9BJF5 1-507 G128M): T1 sequence (Q9BJF5 1-507) with G128M

[4] = tested on: RH-strain T. gondii tachyzoites; experiment: Determination of mutagen concentration killing T. gondii tachyzoites; assay type: cell-based, Toxoplasma gondii; details: RH-strain tachyzoites expressing β-galactosidase and GFP
T. gondii cell cycle = details: cited from earlier work
[5] = vs parent strain, host cell nuclei assay

SMILES: CC(C)(C)n1nc(Cc2cccc3ccccc23)c2c(N)ncnc21 [1-NM-PP1]
- TgCDPK1 G128M fold increase EC50 (T. gondii TgCDPK1 G128M; [5]): 7.4 fold
- pEC50 (T. gondii parent strain): 7.72
- resistance conferred by TgMAPKL1 S191Y substitution (T. gondii TgMAPKL1 S191Y): conferred resistance
- pEC50 (T. gondii TgMAPKL1 L162Q): 7.12
- TgMAPKL1 L162Q fold increase EC50 (T. gondii TgMAPKL1 L162Q; [5]): 3.9 fold
- TgCDPK1 G128M TgMAPKL1 L162Q fold increase EC50 ([1]; double mutant vs parent strain, host cell nuclei assay): 89.5 fold
- pEC50 [1]: 5.77

SMILES: CCOc1ccc2cc(-c3nn(CC4CCN(C)CC4)c4ncnc(N)c34)ccc2c1 [BKI-1294]
- pEC50 (T. gondii TgCDPK1 G128M; read-out: TgCDPK1 G128M EC50 (95% CI), remaining host cell nuclei, 5 days): 5.82
- pEC50 [2]: 7.18
- pEC50 [3]: 7.66
- pEC50 (T. gondii parent strain): 6.64
- pEC50 (T. gondii TgCDPK1 G128T): 5.77
- pEC50 (T. gondii TgMAPKL1 L162Q): 6.35
- pEC50 [1]: 5.49

SMILES: CCOc1ccc2cc(-c3nn(CC4CCN(C)CC4)c4ncnc(N)c34)ccc2n1 [BKI-1369]
- pIC50 (TgCDPK1 128G): 8.22
- Fold Increase EC50 [2]: 3.20 fold
- pEC50 [2]: 6.92
- pEC50 [3]: 7.42
- Fold Increase IC50 (TgCDPK1 128M): 2246 fold
- pIC50 (TgCDPK1 128M): 4.86

SMILES: CCOc1ccc2cc(-c3nn(C(C)(C)C)c(N)c3C(N)=O)cnc2c1 [BKI-1517]
- pEC50 [2]: 6.54
- pEC50 [3]: 7.10

SMILES: CCOc1ccc2cc(-c3nn(C4CCOCC4)c(N)c3C(N)=O)ccc2n1 [BKI-1841]
- pIC50 (TgCDPK1 128G): 7.52
- Fold Increase EC50 [2]: 2.90 fold
- pEC50 [2]: 6.40
- pEC50 [3]: 6.85
- Fold Increase IC50 (TgCDPK1 128M): 585 fold
- pIC50 (TgCDPK1 128M): 4.75

SMILES: CCN(N=O)C(N)=O [ENU, N-ethyl-N-nitrosourea]
- concentration required to kill 70% of a population of tachyzoites [4]: 2 mM

SMILES: Cc1cccc(-c2[nH]c(C(C)(C)C)nc2-c2ccc3c(c2)OCO3)n1 [SB505124]
- effect on T. gondii cell cycle (T. gondii cell cycle): arrested the T. gondii cell cycle
